Assay [1] addresses Dual specificity protein kinase CLK1 (Mus musculus, UniProt P22518). The assay can be described thus: Inhibition of mouse recombinant CLK1 expressed in bacterial system using GRSRSRSRSRSR as substrate incubated for 30 mins by ADP-Glo assay kit method.
Assay [2] has as its target Serine/threonine-protein kinase pim-1 (Homo sapiens, UniProt P11309). The assay can be described thus: Inhibition of human PIM1 expressed in bacterial system using histone H1 as substrate incubated for 30 mins by ADP-Glo assay kit method.
Assay [3] in a line: Antioxidant activity assessed as ABTS radical scavenging activity. The format is functional.
In assay [4] the target is Cholinesterase (Homo sapiens) (UniProt P06276). The assay can be described thus: Inhibition of BuChE (unknown origin) by Ellman method. Particulars: concentration not given here.
Sequence of Cholinesterase (Homo sapiens) (P06276 whole entry): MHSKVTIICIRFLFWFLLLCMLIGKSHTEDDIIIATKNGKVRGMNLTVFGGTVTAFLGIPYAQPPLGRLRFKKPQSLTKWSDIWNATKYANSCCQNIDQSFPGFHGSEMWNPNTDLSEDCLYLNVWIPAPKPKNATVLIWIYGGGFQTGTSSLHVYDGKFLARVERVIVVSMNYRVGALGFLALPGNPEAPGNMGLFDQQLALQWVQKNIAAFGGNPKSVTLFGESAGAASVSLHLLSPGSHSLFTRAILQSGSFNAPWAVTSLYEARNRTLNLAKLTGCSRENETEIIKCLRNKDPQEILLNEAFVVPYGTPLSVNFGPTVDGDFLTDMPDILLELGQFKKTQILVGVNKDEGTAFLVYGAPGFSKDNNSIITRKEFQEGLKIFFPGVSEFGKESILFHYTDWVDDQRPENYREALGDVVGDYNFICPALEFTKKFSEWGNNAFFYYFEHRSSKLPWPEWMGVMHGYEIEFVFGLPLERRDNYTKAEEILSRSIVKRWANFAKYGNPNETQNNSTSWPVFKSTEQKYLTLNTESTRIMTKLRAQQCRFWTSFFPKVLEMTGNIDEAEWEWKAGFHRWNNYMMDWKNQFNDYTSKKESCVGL
Assay [5] in a line: Antagonist activity at beta1-adrenoceptor (unknown origin) at 1 uM. Also noted: species or system Homo sapiens.

Sequence of Dual specificity protein kinase CLK1 (P22518 whole entry): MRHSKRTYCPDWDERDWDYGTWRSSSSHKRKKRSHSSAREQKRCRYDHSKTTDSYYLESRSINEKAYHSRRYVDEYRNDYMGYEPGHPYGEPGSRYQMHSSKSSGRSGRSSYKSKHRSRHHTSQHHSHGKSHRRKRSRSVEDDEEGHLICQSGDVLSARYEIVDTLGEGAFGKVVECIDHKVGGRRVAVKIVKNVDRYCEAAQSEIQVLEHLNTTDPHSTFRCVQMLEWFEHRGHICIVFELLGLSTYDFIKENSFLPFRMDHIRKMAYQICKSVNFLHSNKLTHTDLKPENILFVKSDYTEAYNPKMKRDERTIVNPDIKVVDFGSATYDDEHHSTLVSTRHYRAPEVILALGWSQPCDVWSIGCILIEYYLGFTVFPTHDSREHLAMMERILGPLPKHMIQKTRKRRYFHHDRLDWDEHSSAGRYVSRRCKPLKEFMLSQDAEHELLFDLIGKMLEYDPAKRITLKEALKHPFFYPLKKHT
Sequence of Serine/threonine-protein kinase pim-1 (P11309 whole entry): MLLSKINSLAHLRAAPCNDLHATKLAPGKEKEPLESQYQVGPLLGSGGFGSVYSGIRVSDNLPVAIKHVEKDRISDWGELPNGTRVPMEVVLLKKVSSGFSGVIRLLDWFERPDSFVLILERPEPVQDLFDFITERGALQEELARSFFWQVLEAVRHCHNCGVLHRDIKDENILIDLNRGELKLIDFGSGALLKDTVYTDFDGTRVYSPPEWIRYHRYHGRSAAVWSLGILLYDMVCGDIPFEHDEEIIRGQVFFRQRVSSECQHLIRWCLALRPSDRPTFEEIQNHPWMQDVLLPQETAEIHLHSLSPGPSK

As to `NN1C(=O)/C(=C2\C(=O)Nc3ccc(Br)cc32)SC1=S`, the half-inhibitory concentration (IC50) in assay [1] was 4.67 µM; in assay [2] it was 1.8 µM. For the compound `CN1C(=O)/C(=C2/SC(=S)N(N)C2=O)c2cc(Br)ccc21`, the IC50 in assay [1] is > 10 µM; in assay [2] it was 0.77 µM. For `CCCCCCCCCCCCCCCCOC(=O)C1=C(C)NC(C)=C(C(=O)OCCCCCCCCCCCCCCCC)C1c1ccccc1[N+](=O)[O-]`, the IC50 in assay [3] stood at 2.45 µM.

In turn, `COc1cc(/C=C/C(=O)OCCOCCNC(=O)/C=C/c2ccc(OC(C)=O)c(OC(C)=O)c2)ccc1OC(C)=O` had an inhibition in assay [4] of 95%. For the compound `COc1cc2c(cc1OC)CC(=O)N(CCCN(C)C[C@@H](O)COc1ccccc1C)CC2`, 10.4 µM corresponded to half-maximal inhibition in assay [5] (IC50).

These data come from ChEMBL document CHEMBL5120807, “Recent advances in the development of active hybrid molecules in the treatment of cardiovascular diseases” (Bioorg Med Chem, 2022).
